Experimental data from the supplement of paper PMC10307832.

compound: CC(C)CCN1c2nc(Nc3cc(F)c(O)c(F)c3)ncc2N(C)C(=O)C1C [BI-D1870] + COc1cccc2cc(-c3nc([C@H]4CC[C@H](C(=O)O)CC4)n4ncnc(N)c34)[nH]c12 [OSI-027] (partner 0.5 µM); assay: relative viability (nuclei count vs DMSO), 5 days (fraction); higher = more cells survive; details: first compound 0.04 µM
Method in brief: (§1)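 For relative viability, nuclei counts in treated wells were divided by those in vehicle wells. Lung cancer cell lines had been pin-tool dosed in 1536-well plates the day after seeding and cultured for 5 days, then fixed and stained in one step (final 0.05% Triton X-100, 1% formaldehyde, 1 ug/ml Hoechst) and imaged at 4×. Doses were one drug alone or a fixed anchor-drug dose plus five library-drug doses (not always all listed) in √10 steps, and values are duplicate-plate medians.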

Cell Line	relative viability
HCC-78	0.629
NCI-H322M	0.579
LCLC-97TM1	0.682
NCI-H2009	0.742
A-427	0.547
NCI-H441	0.577
NCI-H661	0.765
NCI-H1734	0.569
NCI-H460	0.825
NCI-H2347	0.422
SK-LU-1	0.386
NCI-H1395	0.717
201T	0.742
NCI-H1915	0.665
HCC-827	0.74
LXF-289	0.796

Cell Line	relative viability
NCI-H23	0.782
NCI-H647	0.657
CAL-12T	0.593
NCI-H1651	0.738
EPLC-272H	0.263
NCI-H2228	0.659
NCI-H1792	0.753
NCI-H1355	0.464
NCI-H3122	1.08
NCI-H1437	0.924
NCI-H1755	0.705
NCI-H2023	0.456
HCC-15	0.732
NCI-H1793	0.293
PC-14	0.995

same assay, conditions: first compound 0.1265 µM

Cell Line	relative viability
SW 900	0.424
HCC-78	0.346
NCI-H322M	0.511
LCLC-97TM1	0.61
NCI-H2009	0.571
A-427	0.429
NCI-H441	0.557
NCI-H661	0.622
NCI-H1734	0.541
NCI-H460	0.504
NCI-H2347	0.458
SK-LU-1	0.305
NCI-H1395	0.639
201T	0.826
NCI-H1915	0.516
HCC-827	0.738

Cell Line	relative viability
LXF-289	0.74
NCI-H23	0.525
NCI-H647	0.519
CAL-12T	0.449
NCI-H1651	0.608
EPLC-272H	0.218
NCI-H2228	0.533
NCI-H1792	0.613
NCI-H1355	0.36
NCI-H3122	0.876
NCI-H1437	0.788
NCI-H1755	0.714
NCI-H2023	0.298
HCC-15	0.611
NCI-H1793	0.216
PC-14	0.626

same assay, conditions: first compound 0.4 µM

Cell Line	relative viability
SW 900	0.442
HCC-78	0.401
NCI-H322M	0.38
LCLC-97TM1	0.557
NCI-H2009	0.615
A-427	0.574
NCI-H441	0.601
NCI-H661	0.652
NCI-H1734	0.567
NCI-H460	0.43
NCI-H2347	0.374
SK-LU-1	0.26
NCI-H1395	0.658
201T	0.702
NCI-H1915	0.591
HCC-827	0.71

Cell Line	relative viability
LXF-289	0.746
NCI-H23	0.463
NCI-H647	0.664
CAL-12T	0.477
NCI-H1651	0.668
EPLC-272H	0.272
NCI-H2228	0.654
NCI-H1792	0.533
NCI-H1355	0.361
NCI-H3122	0.932
NCI-H1437	0.807
NCI-H1755	0.651
NCI-H2023	0.323
HCC-15	0.638
NCI-H1793	0.22
PC-14	0.747

same assay, conditions: first compound 1.265 µM

Cell Line	relative viability
SW 900	0.604
HCC-78	0.427
NCI-H322M	0.444
LCLC-97TM1	0.727
NCI-H2009	0.559
A-427	0.61
NCI-H441	0.637
NCI-H661	0.706
NCI-H1734	0.629
NCI-H460	0.442
NCI-H2347	0.476
SK-LU-1	0.299
NCI-H1395	0.616
201T	0.801
NCI-H1915	0.476
HCC-827	0.76

Cell Line	relative viability
LXF-289	0.807
NCI-H23	0.547
NCI-H647	0.855
CAL-12T	0.599
NCI-H1651	0.753
EPLC-272H	0.278
NCI-H2228	0.515
NCI-H1792	0.552
NCI-H1355	0.425
NCI-H3122	1.07
NCI-H1437	0.941
NCI-H1755	0.847
NCI-H2023	0.319
HCC-15	0.765
NCI-H1793	0.266
PC-14	0.773

same assay, conditions: first compound 4 µM

Cell Line	relative viability
SW 900	0.327
HCC-78	0.309
NCI-H322M	0.494
LCLC-97TM1	0.472
NCI-H2009	0.255
A-427	0.528
NCI-H441	0.496
NCI-H661	0.467
NCI-H1734	0.472
NCI-H460	0.185
NCI-H2347	0.478
SK-LU-1	0.199
NCI-H1395	0.593
201T	0.683
NCI-H1915	0.411
HCC-827	0.711

Cell Line	relative viability
LXF-289	0.776
NCI-H23	0.344
NCI-H647	0.53
CAL-12T	0.303
NCI-H1651	0.63
EPLC-272H	0.204
NCI-H2228	0.257
NCI-H1792	0.397
NCI-H1355	0.308
NCI-H3122	0.619
NCI-H1437	0.786
NCI-H1755	0.683
NCI-H2023	0.223
HCC-15	0.396
NCI-H1793	0.224
PC-14	0.605

compound: CC(C)CCN1c2nc(Nc3cc(F)c(O)c(F)c3)ncc2N(C)C(=O)C1C [BI-D1870] + N=C(N)NC(=N)NCCc1ccccc1 [Phenformin] (partner 250 µM); assay: as above; details: first compound 0.04 µM
Method in brief: as §1

Cell Line	relative viability
SW 900	0.748
HCC-78	0.72
NCI-H322M	0.841
LCLC-97TM1	0.458
NCI-H2009	0.546
A-427	0.41
NCI-H441	1.02
NCI-H661	0.27
NCI-H1734	0.402
NCI-H460	0.541
NCI-H2347	0.67
SK-LU-1	0.505
NCI-H1395	0.451
201T	0.457
NCI-H1915	0.376
HCC-827	0.436

Cell Line	relative viability
LXF-289	0.561
NCI-H23	0.827
NCI-H647	0.659
CAL-12T	0.647
NCI-H1651	0.389
EPLC-272H	0.36
NCI-H2228	0.4
NCI-H1792	0.361
NCI-H1355	0.494
NCI-H3122	0.362
NCI-H1437	0.279
NCI-H1755	0.651
NCI-H2023	0.487
HCC-15	0.56
NCI-H1793	0.387
PC-14	0.669

same assay, conditions: first compound 0.1265 µM

Cell Line	relative viability
SW 900	0.452
HCC-78	0.796
NCI-H322M	0.764
LCLC-97TM1	0.472
NCI-H2009	0.457
A-427	0.308
NCI-H441	0.832
NCI-H661	0.28
NCI-H1734	0.379
NCI-H460	0.48
NCI-H2347	0.377
SK-LU-1	0.525
NCI-H1395	0.418
201T	0.47
NCI-H1915	0.358
HCC-827	0.38

Cell Line	relative viability
LXF-289	0.493
NCI-H23	0.758
NCI-H647	0.466
CAL-12T	0.452
NCI-H1651	0.315
EPLC-272H	0.262
NCI-H2228	0.417
NCI-H1792	0.289
NCI-H1355	0.418
NCI-H3122	0.354
NCI-H1437	0.255
NCI-H1755	0.62
NCI-H2023	0.367
HCC-15	0.468
NCI-H1793	0.311
PC-14	0.521

same assay, conditions: first compound 0.4 µM

Cell Line	relative viability
SW 900	0.63
HCC-78	0.795
NCI-H322M	0.668
LCLC-97TM1	0.396
NCI-H2009	0.456
A-427	0.306
NCI-H441	0.74
NCI-H661	0.281
NCI-H1734	0.412
NCI-H460	0.503
NCI-H2347	0.405
SK-LU-1	0.514
NCI-H1395	0.464
201T	0.421
NCI-H1915	0.378
HCC-827	0.375

Cell Line	relative viability
LXF-289	0.491
NCI-H23	0.768
NCI-H647	0.62
CAL-12T	0.583
NCI-H1651	0.287
EPLC-272H	0.289
NCI-H2228	0.317
NCI-H1792	0.259
NCI-H1355	0.44
NCI-H3122	0.383
NCI-H1437	0.309
NCI-H1755	0.647
NCI-H2023	0.408
HCC-15	0.417
NCI-H1793	0.389
PC-14	0.587

same assay, conditions: first compound 1.265 µM

Cell Line	relative viability
SW 900	0.672
HCC-78	0.822
NCI-H322M	0.626
LCLC-97TM1	0.417
NCI-H2009	0.329
A-427	0.379
NCI-H441	1.17
NCI-H661	0.289
NCI-H1734	0.43
NCI-H460	0.447
NCI-H2347	0.443
SK-LU-1	0.63
NCI-H1395	0.456
201T	0.487
NCI-H1915	0.305
HCC-827	0.436

Cell Line	relative viability
LXF-289	0.529
NCI-H23	0.759
NCI-H647	0.513
CAL-12T	0.461
NCI-H1651	0.295
EPLC-272H	0.28
NCI-H2228	0.348
NCI-H1792	0.504
NCI-H1355	0.46
NCI-H3122	0.39
NCI-H1437	0.332
NCI-H1755	0.688
NCI-H2023	0.416
HCC-15	0.426
NCI-H1793	0.423
PC-14	0.627

same assay, conditions: first compound 4 µM

Cell Line	relative viability
SW 900	0.618
HCC-78	0.593
NCI-H322M	0.701
LCLC-97TM1	0.453
NCI-H2009	0.222
A-427	0.347
NCI-H441	0.872
NCI-H661	0.269
NCI-H1734	0.376
NCI-H460	0.0984
NCI-H2347	0.406
SK-LU-1	0.358
NCI-H1395	0.427
201T	0.428
NCI-H1915	0.291
HCC-827	0.366

Cell Line	relative viability
LXF-289	0.451
NCI-H23	0.736
NCI-H647	0.324
CAL-12T	0.302
NCI-H1651	0.322
EPLC-272H	0.2
NCI-H2228	0.288
NCI-H1792	0.508
NCI-H1355	0.38
NCI-H3122	0.346
NCI-H1437	0.27
NCI-H1755	0.573
NCI-H2023	0.308
HCC-15	0.394
NCI-H1793	0.27
PC-14	0.447
